The results in this text go back to patent US12410411B2, “Biocatalytic techniques” (HYPHA DISCOVERY LIMITED, priority 2019, dated 2025).

The subject of assay [1] is P450SeuC10. The assay is described as follows: Whole-cell biotransformation in E. coli expressing P450SeuC10, ferredoxinSeuF08 and ferredoxin reductaseSCF15A (Example 4B). Type of assay: cell-based, Streptomyces eurythermus NRRL 2539. Conditions: for inferred yield of oxidised product (UPLC-MS): product formed from parent substrate dosed at 100 mg/L, E. coli whole cells, 100 μL screening scale; for Overall % conversion to oxidised products: SeuC10, E. coli whole cells, 0.1 mg/ml substrate, 27° C., pH 7.4. The source says: Cell pellets were provided as in Example 2. […] Reactions were stopped and analysed as in Example 4.

Assay [2] deals with P450SeuC10. Briefly: Oxidase activity/spectrum testing with lyophilised material containing P450SeuC10, ferredoxinSeuF08 and ferredoxin reductaseSCF15A (Example 4A). Type of assay: biochemical, Streptomyces eurythermus NRRL 2539. The conditions noted are these: for inferred yield of oxidised product (UPLC-MS): product formed from parent substrate dosed at 100 mg/L, lyophilised material, 100 μL screening scale; for Overall % conversion to oxidised products: SeuC10, lyophilised material, 0.1 mg/ml substrate, 27° C., 16-20 hours, pH 8.0, UPLC-MS. As to the method: Suspended cell pellets were provided as described in Example 2, containing recombinant P450, ferredoxin and ferredoxin reductase in 100 mM potassium phosphate buffer pH 8.0, 5 mM MgCl2, 5 mM TCEP, and 1 mM PMSF in a ratio of 3.0 ml of buffer per 1 g of cells. Lysed cells were produced by high pressure disruption using three cycles of 30 kpsi. Lysed material was centrifuged at 38,000×g for 40 minutes (4° C.) and the supernatant was sterilized by passing through a 0.2 micron filter to provide the cell-free enzyme preparation containing recombinant P450, ferredoxin and ferredoxin reductase.
(§1) Lyophilised material of recombinant P450, ferredoxin and ferredoxin reductase proteins was made as described in Example 3 and reconstituted in high purity water to the original volume. Biocatalysis was performed shaking at 27° C. in the following conditions: 100 mM potassium phosphate pH 8.0, 5 mM MgCl2 (both present in the reconstituted enzyme preparation) and 0.1 mg/ml substrate compound such as carbamazepine, bosentan, diclofenac, meloxicam, tivantinib or ambroxide.
(§2) Concentrations of P450, ferredoxin and ferredoxin reductase were as extracted (Example 3). Reactions were initiated by addition of 10× stock of cofactor mixture (50 mM G6P, 10 mM NADP, 10 UN/ml G6PDH) to provide a final volume of e.g., 10 μL to 90 μL for 100 μL total reaction volumes. After 16-20 hours, reactions were extracted with an equal volume of acetonitrile, centrifuged to remove precipitated proteins and conversion assessed by UPLC-MS analysis.
UPLC data were obtained as follows:
Column: Acquity UPLC BEH Shield RP18 1.7 μm 2.1 mm i.d. 50 mm length
Solvents: H2O, B: Acetonitrile, both with 0.1% Formic acid
Detector: Waters Acquity UPLC PDA (UV-Vis detection) and Waters Acquity UPLC QDA (MS)

The next assay has as its system SriC12. Briefly: Substrate testing with lyophilised material containing SriC12 (Example 5, method of Example 4A). Type of assay: biochemical, Streptomyces rimosus NRRL 2234. The conditions noted are these: 0.1 mg/ml substrate. The method, then:
as §1, §2
(§3) Other cytochrome P450 enzymes were expressed as described above, and their activities tested against the same substrates as P450SeuC10 using the methods described in Example 4. The other P450s tested were: P450AluC09 from Amycolatopsis lurida NRRL 2430 (SEQ ID NO: 13, see WO 2018/091885); SriC12 from Streptomyces rimosus NRRL 2234 (SEQ ID NO: 14, see WO 2020/109776); SriC20 from Streptomyces rimosus NRRL 2234 (SEQ ID NO: 15, see WO 2020/109776); SriC22 from Streptomyces rimosus NRRL 2234 (SEQ ID NO: 16, see WO 2020/109776); and CYP107L from Streptomyces platensis DSM 40041 (SEQ ID NO: 17, see Worsch et al., Biotechnology and Bioengineering 115: 2156-2166, 2018).

Assay [3] concerns P450AluC09. The assay is described as follows: Substrate testing with lyophilised material containing P450AluC09 (Example 5, method of Example 4A). Conditions: AluC09, lyophilised material, 0.1 mg/ml substrate. Type of assay: biochemical, Amycolatopsis lurida NRRL 2430. The method, then: as §1, §2, §3
A further assay concerns SriC22. Briefly: Substrate testing with lyophilised material containing SriC22 (Example 5, method of Example 4A). Format: biochemical, Streptomyces rimosus NRRL 2234. The conditions noted are these: 0.1 mg/ml substrate. As to the method: as §1, §2, §3
The test system of the next assay is SriC20. Briefly: Substrate testing with lyophilised material containing SriC20 (Example 5, method of Example 4A). Type of assay: biochemical, Streptomyces rimosus NRRL 2234. Conditions: 0.1 mg/ml substrate. The method, then:
as §1, §2, §3

The subject of assay [4] is P450AluC09. The assay is described as follows: Substrate testing with whole cells containing P450AluC09 (Example 5, method of Example 4B). Conditions: AluC09, whole cells, 0.1 mg/ml substrate. Type of assay: cell-based, Amycolatopsis lurida NRRL 2430. As to the method:
Cell pellets were provided as in Example 2. The cell pellets were defrosted, washed with 0.85% NaCl buffer and centrifuged at 4,000 RCF, 30 minutes at 4° C. The supernatant was discarded and the pellet was flash frozen in liquid nitrogen. The pellet was allowed to defrost again and resuspended in 40 mL of buffer containing 50 mM potassium phosphate, pH 7.4, 5 mM MgCl2 and 100 mM glucose. Biocatalysis was performed shaking at 27° C. with 0.1 mg/ml substrate compound such as carbamazepine, bosentan, diclofenac, meloxicam, tivantinib, ambroxide or others as shown in Table 2. Reactions were stopped and analysed as in Example 4.
as §3

For the compound `O=C(O)Cc1ccccc1Nc1c(Cl)cc(O)cc1Cl` [4′-hydroxydiclofenac], the “inferred yield of oxidised product (UPLC-MS)” value (“inferred yield” for short) in the assay on P450SeuC10 [1] was found to be 73.4%.
Take `O=C(O)Cc1cc(O)ccc1Nc1c(Cl)cccc1Cl` [5-hydroxydiclofenac]: the “inferred yield” value in the assay with P450SeuC10 [1] is reported as 19.4%.
For `CN1C(C(=O)Nc2ncc(C(=O)O)s2)=C(O)c2ccccc2S1(=O)=O` [5′-carboxylmeloxicam], the “inferred yield” value in the assay with P450SeuC10 [2] stood at 5.3%.
`CN1C(C(=O)Nc2ncc(CO)s2)=C(O)c2ccccc2S1(=O)=O` [5′-hydroxymethylmeloxicam]: in the assay on P450SeuC10 [2], the “inferred yield” value amounted to 28.4%.
As for `CC1(C)CCC[C@]2(C)[C@H]3CCO[C@]3(C)CC[C@@H]12` [Ambroxide], the “Overall % conversion to oxidised products” value (shortened to “Overall % conversion”) in the assay on P450SeuC10 [2] came out at 72.8%; in the assay on SriC12 it was 0%; in the assay with P450AluC09 [3], 0%; in the assay with SriC22 it was 0%; in the assay with SriC20, 0%.
In the case of `Cc1ccc(-n2nc(C(C)(C)C)cc2NC(=O)Nc2ccc(OCCN3CCOCC3)c3ccccc23)cc1` [BIRB796], the “Overall % conversion” value in the assay with P450SeuC10 [1] is 19.3%; in the assay with P450AluC09 [4], 5.2%.
As to `COc1ccccc1Oc1c(NS(=O)(=O)c2ccc(C(C)(C)C)cc2)nc(-c2ncccn2)nc1OCCO` [Bosentan], the “Overall % conversion” value with P450SeuC10 [1] was determined as 87.1%; with P450AluC09 [4], 100%.
In the same order, the values of `CC(C)(C)[C@H]1CC[C@H](CC2=C(O)C(=O)c3ccccc3C2=O)CC1` [Buparvaquone] are 23.4% and 48.8%.
For `NC(=O)N1c2ccccc2C=Cc2ccccc21` [Carbamazepine], the “Overall % conversion” value in the assay on P450SeuC10 [2] is listed as 49.2%; in the assay on SriC12, 3.2%; in the assay with P450AluC09 [3] it was 0%; in the assay on SriC22, 0%; with SriC20, 0%.
Turning to `O=C(O)Cc1ccccc1Nc1c(Cl)cccc1Cl` [Diclofenac], the “Overall % conversion” value in the assay on P450SeuC10 [2] came to 98.3%; in the assay on SriC12 it was 33.9%; in the assay with P450AluC09 [3], 89.9%; with SriC22 it was 0.9%; in the assay with SriC20 it was 0%.
Regarding `C/C(=C\c1csc(C)n1)[C@@H]1C[C@@H]2O[C@]2(C)CCC[C@H](C)[C@H](O)[C@@H](C)C(=O)C(C)(C)[C@@H](O)CC(=O)O1` [Epothilone B], the “Overall % conversion” value was 35.1% in the assay with P450SeuC10 [2]; 2% in the assay on SriC12; 46% in the assay on P450AluC09 [3]; 0% in the assay on SriC22; 0% in the assay on SriC20.
For the compound `CC(C)(C)c1ccc(S(=O)(=O)Nc2nc(-c3ncccn3)nc(OCCO)c2Oc2ccccc2O)cc1` [O-desmethylbosentan], the “inferred yield” value in the assay with P450SeuC10 [1] turned out to be 3.4%.
Regarding `CCCCCCCCCCCCCCCC(=O)O` [Palmitic acid], the “Overall % conversion” value was determined as 70.2% in the assay with P450SeuC10 [2]; 35.5% in the assay on SriC12; 28.5% in the assay with P450AluC09 [3]; 0% in the assay on SriC22; 0% with SriC20.
Regarding `CCC[C@H](N[C@@H](C)C(=O)N1[C@H](C(=O)O)C[C@@H]2CCCC[C@@H]21)C(=O)OCC` [Perindopril], the “Overall % conversion” value in the assay on P450SeuC10 [1] was 14.4%; in the assay with P450AluC09 [4], 0%.
In the case of `CC(C)c1nc(CN(C)C(=O)N[C@H](C(=O)N[C@@H](Cc2ccccc2)C[C@H](O)[C@H](Cc2ccccc2)NC(=O)OCc2cncs2)C(C)C)cs1` [Ritonavir], the “Overall % conversion” value in the assay with P450SeuC10 [1] amounted to 21.6%; with P450AluC09 [4] it was 86.3%.
Turning to `N#CC[C@H](C1CCCC1)n1cc(-c2ncnc3[nH]ccc23)cn1` [Ruxolitinib], the “Overall % conversion” value turned out to be 38.6% in the assay with P450SeuC10 [1] and 34.3% with P450AluC09 [4].
For `CCCCNC(=O)NS(=O)(=O)c1ccc(C)cc1` [Tolbutamide], the “Overall % conversion” value in the assay with P450SeuC10 [2] came out at 21%; with SriC12 it was 34%; in the assay with P450AluC09 [3], 0%; in the assay on SriC22, 0%; with SriC20 it was 0%.
Turning to `Fc1ccc(C(OCCN2CCN(CCCc3ccccc3)CC2)c2ccc(F)cc2)cc1` [Vanoxerine], the “Overall % conversion” value in the assay with P450SeuC10 [1] worked out at 26.5%; with P450AluC09 [4] it was 0%.
Regarding `NC(=O)N1c2ccccc2C2OC2c2ccccc21` (stereo not drawn) [carbamazepine-10,11-epoxide], the “inferred yield” value with P450SeuC10 [2] came out at 49%.
Regarding `COc1ccccc1Oc1c(NS(=O)(=O)c2ccc(C(C)(C)CO)cc2)nc(-c2ncccn2)nc1OCCO` [hydroxy-bosentan], the “inferred yield” value with P450SeuC10 [1] was 81%.
